Marks after values point to notes of the source that are not given here.
How the values were obtained:
mouse model of NASH = assay: Mouse NASH model (high fat diet + CCl4), Compound 3 and Compound 2 alone and combined; type: in vivo; conditions: liver RNAseq vs vehicle NASH control, 28 d; Compound 3 3 mg/kg, Compound 2 1 mg/kg; adj. p<0.05, fold-change >1.5
Method: C57BL/6J mice were fed a high fat diet for 10 weeks to induce obesity (>38 g BW). Obese mice were injected intraperitoneally (i.p.) twice a week for four weeks with […] 25% CCl4 (formulated in olive oil) to induce fibrosis, and one group of normal BW mice were injected i.p. twice a week for four weeks with olive oil to serve as a healthy control. During the same dosing period, obese mice were fed orally once a day for 28 days with vehicle, Compound 3 or Compound 2 as single agents or in combination. On CCl4 dosing days, CCl4 was administered at 4 hours post compound or vehicle dosing. On day 27, all animals were fasted for about 16 hours before terminal euthanasia. On day 28, all animals were sacrificed and liver samples were collected for whole transcriptome analysis by RNA sequencing (RNAseq). RNAseq library (n=5 per group) preparation and sequencing was performed using Illumina standard protocols. Alignment of sequencing reads was performed using STAR aligner software and read counts were estimated using RSEM. Differentially expressed genes (compared to vehicle-treated NASH control mice) were determined using EdgeR software. Gene ontology analysis was performed using Advaita software with fold-change and adjusted p-value cutoffs of >1.5 and <0.05, respectively. Gene ontologies were derived from the Gene Ontology Consortium database (2019 Apr. 26) (Ashburner et al., Gene ontology: Tool for the unification of biology. Nature Genetics 25(1): 25-9 (2000); Gene Ontology Consortium, Creating the Gene Ontology Resource: Design and Implementation. Genome Research 11: 1425-1433 (2001)).
Gene ontology (GO) enrichment analysis was used to understand the potential biological consequences of the results in Table 22. To perform GO term enrichment analysis, the number (i.e., enrichment) of DEGs annotated for a particular term (i.e. biology process) was compared to the number of DEGs expected solely by chance. An over-representation approach was used to compute statistical significance (p-value) of observing at least the given number of DEGs; p-values were corrected for multiple comparisons.
On day 28 of treatment as described in Example 14, animals were euthanized for sample collections. Analysis of cholesterol, triglycerides, and ALT was done using a Hitachi 7180 clinical analyzer. Liver samples were processed for lipid quantification (colorimetric assays, SpectraMax 340PC384), histology, and RNA analysis. RNAseq library preparation (n=5 per group) and sequencing was performed using Illumina standard protocols. Alignment of sequencing reads was performed using STAR aligner and read counts were estimated using RSEM. Differentially expressed genes (DEGs) relative to NASH control were determined using EdgeR. Gene ontology analysis was performed using Advaita software.

[1] = system: rat CDHFD+NaNO2 NASH model; assay: Rat CDHFD+NaNO2 NASH model, liver RNAseq; type: in vivo; conditions: 8 wk, Compound 3 3 mg/kg, Compound 1 25 mg/kg; for Down DEGs / Total DEGs / Up DEGs: liver RNAseq vs vehicle NASH control, adj. p<0.01, fold-change ≥1.5
Method: Animal handling: After arrival, the rats were left for a 2-week acclimation period, during which they were accustomed to the animal facility staff and trained on the procedure of oral gavage. After 2 weeks the animals were put on CHDFD (choline deficient high fat diet) and pre-fed for 4 weeks. Then the rats were started on treatment with test compounds, and 3× per week i.p. NaNO2 injections, while they remained on CDHFD, for an additional 8 weeks. NaNO2 was administered at 25 mg/kg i.p. dissolved in PBS 3 times a week (on Mondays, Wednesdays, and Fridays) for 8 weeks while on CDHFD.
(§1) Final Sacrifice: Half of the animals of each treatment group were terminated on day 84. The other half of the animals in each group were terminated on the following day, day 85. On the day of sacrifice the animals were fasted for 2 h and received a final treatment with the respective test substance. After the final compound treatment, the animals had no more access to food until sacrifice. At 4 h after the last administration all animals were sacrificed and livers were sampled for further analysis.
Animal handling: After arrival, the rats were left for a 2-week acclimation period, during which they were accustomed to the animal facility staff and trained on the procedure of oral gavage. After 2 weeks the animals were placed on a choline deficient high fat diet (CDHFD) and pre-fed for 4 weeks to induce steatosis and a NASH-like disease phenotype. Rats were then treated with test compounds for an additional 8 weeks while on CDHFD. Concomitant with compound treatment, rats were administered sodium nitrite (NaNO2, 25 mg/kg dissolved in PBS) by triweekly intraperitoneal (IP) injection to induce liver fibrosis.
as §1, with “2 hours” for “2 h”, “4 hours” for “4 h”
Sampling and analysis: Small liver pieces were harvested into RNAlater (Thermo Fisher Scientific Dreieich Germany) and stored at −20° C. prior to RNA sequencing (RNAseq) at MedGenome Inc. RNAseq analysis was performed on liver tissue by Illumina sequencing using standard methodologies. Briefly, RNAseq libraries (n=5 per group) were generated using Illumina Truseq stranded mRNA kits and sequencing was performed on a NovaSeq 6000 sequencer. Alignment was performed using STAR (v2.7.3a) aligner and reads mapping to ribosomal and mitochondrial genome were removed prior to alignment. Raw read counts were estimated using HTSeq (v0.11.1) and normalized using DESeq2 (v2.22.2). Differentially expressed genes (DEGs) were determined using DESeq2 (R Bioconductor package).

N#Cc1nn(-c2cc(Cl)c(Oc3n[nH]c(=O)c4ccccc34)c(Cl)c2)c(=O)[nH]c1=O [Compound 2, 2-(3,5-dichloro-4-((4-oxo-3,4-dihydrophthalazin-1-yl)oxy)phenyl)-3,5-dioxo-2,3,4,5-tetrahydro-1,2,4-triazine-6-carbonitrile] was tested, and the “Down DEGs” value (mouse model of NASH) was 635, the “Total DEGs” value (mouse model of NASH) was 1113 and the “Up DEGs” value (mouse model of NASH) was 478.

In the case of Cn1cc(C(=O)O)c2ccc(N3CCC(OCc4c(-c5c(Cl)cccc5Cl)noc4C4CC4)CC3)cc21 [Compound 3], the “Down DEGs” value [1] was 118, the “Total DEGs” value [1] was 309 and the “Up DEGs” value [1] was 191. For the same molecule, the “Fabp2 differential gene expression relative to vehicle control” value ([1]; liver RNAseq) was −1.02* log2-fold change, the “Irs1 differential gene expression relative to vehicle control” value ([1]; liver RNAseq) was −0.03 log2-fold change and the “Irs2 differential gene expression relative to vehicle control” value ([1]; liver RNAseq) was 0.27 log2-fold change. The “Ldlr differential gene expression relative to vehicle control” value ([1]; liver RNAseq) was 0.4 log2-fold change, the “Ldlrap1 differential gene expression relative to vehicle control” value ([1]; liver RNAseq) was −0.07 log2-fold change and the “Lrp1 differential gene expression relative to vehicle control” value ([1]; liver RNAseq) was 0.51 log2-fold change. For the same molecule, the “Lrp2 differential gene expression relative to vehicle control” value ([1]; liver RNAseq) was 0.33 log2-fold change, the “Ppara differential gene expression relative to vehicle control” value ([1]; liver RNAseq) was 0.36 log2-fold change and the “Ppargcla differential gene expression relative to vehicle control” value ([1]; liver RNAseq) was 0.25 log2-fold change. The “Rxra differential gene expression relative to vehicle control” value ([1]; liver RNAseq) was 0.03 log2-fold change, the “Slc27a1 differential gene expression relative to vehicle control” value ([1]; liver RNAseq) was 0.16 log2-fold change and the “Slc27a5 differential gene expression relative to vehicle control” value ([1]; liver RNAseq) was 0.5 log2-fold change. The “Vegfa differential gene expression relative to vehicle control” value ([1]; liver RNAseq) was 0.48 log2-fold change, the “Vegfc differential gene expression relative to vehicle control” value ([1]; liver RNAseq) was −0.28 log2-fold change and the “Vldlr differential gene expression relative to vehicle control” value ([1]; liver RNAseq) was −0.58 log2-fold change. The “Down DEGs” value (mouse model of NASH) was 271, the “Total DEGs” value (mouse model of NASH) was 617 and the “Up DEGs” value (mouse model of NASH) was 346.

With COC1CCN(c2ncc(OC/C(=C/F)CN)cn2)CC1 [Compound 1, (E)-3-fluoro-2-(((2-(4-methoxypiperidin-1-yl)pyrimidin-5-yl)oxy)methyl)prop-2-en-1-amine] the “Down DEGs” value [1] was 641, the “Total DEGs” value [1] was 847 and the “Up DEGs” value [1] was 206.

Source: patent publication US20230241071A1, “COMBINATION TREATMENT OF LIVER DISORDERS” (Terns Pharmaceuticals, Inc., priority 2021, published 2023)
